# From patent US20020164581A1 (priority 2001, published 2002)
# Read-outs that look alike come from different tables or passages of the source.
# Assays:
# [1] = system: antioxidant enzymes (SOD, CAT, GPX, GR) in bAECs; assay: Antioxidant enzyme (AOE) activities in cell lysates, all four enzymes together; type: cell-based, bovine; conditions: for AOE change, SERM alone: pretreatment with 1 μM alone
# Procedure: […] The cells were then lysed on ice by sonication at a setting of 50 mW, with 3×15 set cycles using a Cole-Parmer Ultrasonic Homogenizer (Chicago, Ill.). Protein concentrations in the samples were determined by the Bradford method with bovine serum albumin as a standard (Bradford, Anal. Biochem. 72:248-254, 1976).
# SOD activity was determined by a method based on the ability of SOD to suppress epinephrine auto-oxidation (Misra and Fridovich, J.Biol. Chem. 247:3170-3175, 1972). One unit of SOD activity is defined as the amount of protein that inhibits the oxidation of epinephrine by 50%. Briefly, 100 μl of 10×-diluted cell homogenate (about 10 μg protein) was added to 900 μl of carbonate buffer (0.1 M NaHCO3, 0.1 M Na2CO3, 0.1 mM EDTA, pH 10.2) containing 0.7 mM of epinephrine. The absorbency of the mixture was measured for 4 minutes at 480 nm using a Hitachi U-2000 spectrophotometer (Hitachi, San Jose, Calif.).
# CAT activity was determined by the method of Aebi (Methods Enzymol. 105:121,-126, 1984). One unit of CAT activity is defined as the amount of protein that degrades 1 μmole of H2O2 per minute. Initially, 10 μl of absolute ethanol was mixed with 100 μl of cell homogenates and pre-incubated at 4° C. for 30 minutes. Following the addition of 10 μl Triton X-100 (reduced form), a 100 μl aliquot (about 100 μg of protein) of the resultant mixture was next added to 500 μl of hydrogen peroxide (66 mM) and 400 μl of phosphate buffer (0.1 M NaH2PO4, 0.1 M Na2HPO4, 0.1 mM EDTA, pH 7.0). The absorbency of the mixture was monitored for one minute at 240 nm spectrophotometrically. The molar extinction coefficient of 43.6 M/cm was used to determine the catalase activity.
# GPX activity was determined by a modified method of Flohe and Gunzler (Methods Enzymol. 105:114-121, 1984). One unit of GPX activity is defined as the amount of protein that oxidizes 1 nmole of β-NADPH per minute. In this assay, 100 μl of cell homogenate (about 100 μg protein) was added to 800 μl of phosphate buffer (0.1 M NaH2PO4, 0.1 M Na2HPO4, 0.1 mM EDTA, pH 7.0) containing 12.5 mM glutathione (reduced form, GSH), 0.2 mM β-nicotinamide adenine dinucleotide phosphate (reduced form, β-NADPH), and 0.34 U glutathione reductase. This mixture was pre-incubated at 37 C for 10 minutes and then 100 μl of 12 mM t-butyl hydroperoxide was added. The absorbency of the mixture was determined at 340 nm for 3 minutes. The molar extinction coefficient of 6.22 mM/cm was used to determine the activity of GPX.
# GR activity was determined by a modified method of Carlberg and Mannervik (Methods Enzymol. 11 3:484-490, 1985). One unit of GR activity is defined as the amount of protein that oxidizes 1 nmole of β-NADPH per minute. Briefly, 50 μl of 2 mM β-NADPH in 10 mM Tris buffer (pH 7.0) was added to a cuvette containing 50 μl of 20 mM glutathione (oxidized ofrm, GSSG) in phosphate buffer (0.1 M NaH2PO4, 0.1 M Na2HPO4, 0.1 mM EDTA, pH 7.0) and 800 μl of phosphate buffer. Following the addition of cell homogenate (about 100 μg protein/100 μl) the final mixture was measured at 340 nm for 3 minutes. The molar extinction coefficient of 6.22 mM/cm was used to determine the activity of […].
# [2] = system: bovine aortic endothelial cells (bAECs); conditions: for protection against paraquat-mediated cytotoxicity, SERM alone: 10 nM-1 μM, 24 h pretreatment (FIG. 4)
# Procedure: Primary cultures of bAECs were established from five female beef cattle (ranging in age from 1 to 2 years old) according to the method of Fenselau and Mello (Cancer Res. 36:3269-3273, 1976). Pooled cells were routinely maintained under humidified air (5% CO2) at 37° C. in Dulbecco's modified medium supplemented with 10% fetal bovine serum (FBS). Cells from the second to the fifth passages were used in these studies.
# In the studies in which male and female bAECs were compared, batches of bAECs were independently established from 5 female and 4 male beef cattle (ranging in age from 1 to 2 years old) according to the method of Fenselau and Mello (Cancer Res. 36:3269-3273, 1976). Otherwise, the cells were treated and assessed as described in the paragraph above.
# Prior to E2 pretreatment, cells were grown in phenol red-free DMEM supplemented with 10% dextran/charcoal-stripped FBS for at least 1 passage (3-4 days). Phenol red-free Dulbecco's modified medium was used to avoid potential estrogenic interference. Serum steroid deprivation was conducted according to the conditions described by Yeh et al. (Proc. Natl. Acad. Sci. USA 95:5527-5532, 1998). The E2 level in the stripped serum was assayed using an [^125I] 17β-estradiol radioimmunoassay kit (TKE21, Diagnostic Products Corporation, Los Angeles, Calif.). […] The cells grown in E2-free environments were plated onto Falcon 24-well Primariae™ plates at a density of 5×10^4 cells/well. E2 in dimethylsulfoxide (DMSO) was added to each well at final concentrations ranging from 1 nM to 10 μM 3 hours after plating, and the cells were then incubated for 24 hours (a duration commonly used for the studies of the genomic effects of E2) at 37° C. Control cells were treated with a corresponding amount of DMSO (a final concentration 0.05%).
# Prior to oxidative challenge, E2-containing media was removed, and the cells were rinsed with PBS twice and re-fed with serum-free fresh medium. Subsequently, paraquat was added to the cells at the indicated doses (0.1-2.0 mM) for 3 hours. The oxidative challenge was terminated by aspiration of the oxidant-containing medium and quickly rinsing the cells twice with PBS. The cells were allowed to recover for 48 hours in medium supplemented with 10% regular FBS to exclude the possibility that different concentrations of E2 interfere with the cellular recovery processes.
# Cell survival after oxidative challenge was assessed with a 3-(4,5-dimethylthiazol-2-yl) 2,5 diphenyltetrazolium bromide (MTT) assay in which the mitochondrial dehydrogenase activity of viable cells reduces MTT to a blue formazan product (Carmichael et al. Cancer Res. 47:936-942, 1987). Our prior conditions were employed (Si et al., Endocrine in press, 2001). Briefly, cells were treated with 1/10 volume of MTT solution (5 mg/ml in PBS) and incubated at 37° C. for 2 hours. The supernatant was then removed, and 600 μl of lysis buffer (50% dimethyl formamide, 5% sodium dodecyl sulphate, 0.35 M acetic acid, 50 mM HCl) was added to each well. Following cell lysis, the absorbency was measured at 570 nm and used as an indicator of relative cell survival. The surviving fraction was calculated as compared to the cells without paraquat challenge.
# Two experimental groups were created. In the first group, E2 was added only during the 24-hour pretreatment period. In the second group, E2 was added only during the 3-hour paraquat exposure.
# estrogen receptor = conditions: cited from earlier work
# LDL = conditions: 5-50 μM; oxidation by copper ions, monocytes, or endothelial cells; cited from earlier work
# cardiomyocytes = conditions: cited from earlier work
# [3] = system: endothelial nitric oxide synthase; conditions: endothelial cells; cited from earlier work
compound,measurement,setting,value
4-hydroxytamoxifen [4-OH-Tam],effect on E2's capability to evoke AOE activities,[1]; 1 μM SERM included during 1 nM E2 pretreatment (FIG. 6),significantly decreased estrogen's capability to evoke AOE activities
same,"AOE change, SERM alone",[1],no detectable change in AOE
same,protection against subsequent oxidative challenge,[2],neither positively nor negatively influenced oxidative resistance
same,effect on E2-induced oxidative protection,[2]; 10 nM-1 μM added simultaneously with 1 nM E2 during pretreatment,significantly blocked estrogen-induced oxidative protection
same,"protection against paraquat-mediated cytotoxicity, SERM alone",[2],failed to confer detectable protection
same,minimal dose to suppress E2 protection,"[2]; co-treatment with 1 nM E2, endothelial cells",10 nM
CCCCN(C)C(=O)CCCCCCCCCC[C@@H]1Cc2cc(O)ccc2[C@H]2CC[C@]3(C)[C@@H](O)CC[C@H]3[C@H]12 [ICI164384],effect on the beneficial effect of E2,estrogen receptor,reverses the beneficial effect of E2
"O=C(c1ccc(OCCN2CCCCC2)cc1)c1c(-c2ccc(O)cc2)sc2cc(O)ccc12 [Ral, raloxifene]","AOE change, SERM alone",[1],no detectable change in AOE
same,protection against subsequent oxidative challenge,[2],neither positively nor negatively influenced oxidative resistance
same,"protection against paraquat-mediated cytotoxicity, SERM alone",[2],failed to confer detectable protection
same,effect on E2-induced oxidative protection,[2]; 1 μM (highest tested dose) added with 1 nM E2 during pretreatment,only a slight inhibitory effect on E2 protection
same,effect on E2-induced oxidative protection,[2]; 1-100 nM added with 1 nM E2 during pretreatment,did not affect E2-induced oxidative protection
C[C@@H]1C[C@@H]([C@H](O)CC2CC(=O)NC(=O)C2)C(=O)[C@@H](C)C1 [cyclohexamide],effect on AOE induction by E2,[1]; included during the E2 pretreatment period,abolished
CC/C(=C(/CC)c1ccc(O)cc1)c1ccc(O)cc1 [diethylstilbestrol],protection against subsequent oxidative challenge,[2],acquired significant protection against subsequent oxidative challenge
C[C@]12CC[C@@H]3c4ccc(O)cc4CC[C@H]3[C@@H]1C[C@@H](O)[C@@H]2O [estriol],effect on LDL oxidation,LDL,inhibit LDL oxidation
COc1ccc2c(c1)CCC(c1ccccc1)=C2c1ccc(OCCN2CCCC2)cc1 [nafoxidine],protection against subsequent oxidative challenge,[2],neither positively nor negatively influenced oxidative resistance
"C[n+]1ccc(-c2cc[n+](C)cc2)cc1.[Cl-].[Cl-] [paraquat, 1,1′-dimethyl-4,4′-bipyridinium dichloride]",cell killing by paraquat,[2]; exposure of bAECs 3 h at 37 C,dose-dependent cell killing
same,LD50 of paraquat,[2]; male and female bAECs (both genders),0.1 to 1.0 mM
same,LD50 of paraquat toxicity,[2]; untreated control cells (no E2),about 0.5 mM
CC/C(=C(\c1ccccc1)c1ccc(OCCN(C)C)cc1)c1ccccc1 [tamoxifen],effect on E2's protection in cardiomyocytes,cardiomyocytes,abolishes this protective effect
same,effect on E2's induction of nitric oxide synthase,[3],interferes with E2's ability to induce nitric oxide synthase
C[C@]12CC[C@H]3[C@@H](CCC4=CC(=O)CC[C@@]43C)[C@@H]1CC[C@@H]2O [testosterone],effect on LDL oxidation,LDL,has no effect
